US20040152895A1, “Sulfonamides” (priority 2003, published 2004)

Molecular target: T1, human and rat GPR-14 (UniProt Q9UKP6)
T1 sequence (Q9UKP6 1-389): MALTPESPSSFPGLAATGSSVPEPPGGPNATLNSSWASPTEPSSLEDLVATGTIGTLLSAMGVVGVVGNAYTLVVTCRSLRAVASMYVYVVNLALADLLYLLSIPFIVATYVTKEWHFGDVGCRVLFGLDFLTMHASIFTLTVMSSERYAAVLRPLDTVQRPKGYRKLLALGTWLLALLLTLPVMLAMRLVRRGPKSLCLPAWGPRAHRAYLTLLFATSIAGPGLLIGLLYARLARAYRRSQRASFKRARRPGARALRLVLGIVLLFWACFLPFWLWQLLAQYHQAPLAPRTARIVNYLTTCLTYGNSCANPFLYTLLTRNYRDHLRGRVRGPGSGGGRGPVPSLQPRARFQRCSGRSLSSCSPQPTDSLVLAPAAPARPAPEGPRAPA
Assay: Radioligand binding assay ([125I] h-U-II)
Conditions: HEK-293 cell membranes, 200 pM [125I] h-U-II
Procedure: HEK-293 cell membranes containing stable cloned human and rat GPR-14 (20 ug/assay) were incubated with 200 pM [125I] h-U-II (200 Ci/mmol^−1 in the presence of increasing concentrations of test compounds in DMSO (0.1 nM to 10 uM), in a final incubation volume of 200 ul (20 mM Tris-HCl, 5 mM MgCl2). Incubation was done for 30 minutes at room temperature followed by filtration GF/B filters with Brandel cell harvester. ^125I labeled U-II binding was quantitated by gamma counting. Nonspecific binding was defined by ^125I U-II binding in the presence of 100 nM of unlabeled human U-II. Analysis of the data was performed by nonlinear least square fitting.

With CCCSc1ncc(S(=O)(=O)Nc2ccc(Cl)c(OCCN(C)C)c2)c(OC)n1 [Example 1, 4-methoxy-2-propylsulfanyl-pyrimidine-5-sulfonic Acid [4-chloro-3-(2-dimethylamino-ethoxy)-phenyl]-amide] the Ki was 0.22 µM.
